{"source": "patent US20080009418A1", "about": "“Selective Inhibitors” (Alchemia LTD., priority 2004, published 2008)", "key": {"Human δ-opioid (DOP)": {"target": "T1, Human δ-opioid (DOP) (Homo sapiens, UniProt P41143)", "T1 construct": "purchased Perkin Elmer Biosignal", "T1 sequence (P41143 whole entry)": "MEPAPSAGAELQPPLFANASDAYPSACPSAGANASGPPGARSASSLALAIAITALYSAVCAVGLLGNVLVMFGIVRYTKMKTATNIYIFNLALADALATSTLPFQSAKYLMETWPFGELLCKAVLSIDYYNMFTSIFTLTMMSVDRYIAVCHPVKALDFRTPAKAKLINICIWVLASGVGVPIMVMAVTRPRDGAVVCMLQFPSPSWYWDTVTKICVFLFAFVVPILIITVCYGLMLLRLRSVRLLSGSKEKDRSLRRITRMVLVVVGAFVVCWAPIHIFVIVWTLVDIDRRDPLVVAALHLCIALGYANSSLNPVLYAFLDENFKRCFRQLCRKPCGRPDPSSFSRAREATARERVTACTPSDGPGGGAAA", "assay": "Radioligand binding, human δ-opioid (DOP) membranes, FlashPlate, [3H]-Bremazocine", "details": "compound at 10 μM, [3H]-Bremazocine", "in_short": "(§1)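 Cloned human receptor membranes were coated onto FlashPlate wells and incubated with radioligand and compound (added from a 0.5 mM DMSO daughter plate) for 1 hour at room temperature in the dark. Scintillation counting gave percent inhibition, with DMSO defining total and reference ligand defining non-specific binding.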"}, "Human κ-Opioid (KOP)": {"target": "T2, Human κ-Opioid (KOP) (Homo sapiens, UniProt P41145)", "T2 construct": "purchased Perkin Elmer Biosignal", "T2 sequence (P41145 whole entry)": "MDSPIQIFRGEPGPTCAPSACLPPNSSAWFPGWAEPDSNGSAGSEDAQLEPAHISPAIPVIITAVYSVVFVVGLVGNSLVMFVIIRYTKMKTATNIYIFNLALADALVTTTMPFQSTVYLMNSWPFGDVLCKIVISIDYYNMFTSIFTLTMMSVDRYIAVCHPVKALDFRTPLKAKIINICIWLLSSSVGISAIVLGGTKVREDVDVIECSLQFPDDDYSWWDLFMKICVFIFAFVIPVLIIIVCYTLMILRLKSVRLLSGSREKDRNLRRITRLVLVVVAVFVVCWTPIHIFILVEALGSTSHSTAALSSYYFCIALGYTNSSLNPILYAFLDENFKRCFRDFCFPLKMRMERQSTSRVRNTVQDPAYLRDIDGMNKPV", "assay": "Radioligand binding, human κ-opioid (KOP) membranes, filtration, [3H]-Diprenorphine", "details": "compound at 10 μM, [3H]-Diprenorphine", "in_short": "(§2)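 Percent inhibition of radioligand binding measured on recombinant human membranes: NK1 with [125I]-Substance P, KOP with [3H]-Diprenorphine. Incubation 1 h at room temperature, then harvest onto 0.3% PEI-soaked filters, cold Tris-HCl pH 7.4 washes and scintillation counting; non-specific binding from reference ligand wells.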"}, "Human Melanocortin (MC3)": {"target": "T3, Human Melanocortin (MC3) (Homo sapiens, UniProt P41968)", "T3 construct": "purchased Perkin Elmer Biosignal", "T3 sequence (P41968 whole entry)": "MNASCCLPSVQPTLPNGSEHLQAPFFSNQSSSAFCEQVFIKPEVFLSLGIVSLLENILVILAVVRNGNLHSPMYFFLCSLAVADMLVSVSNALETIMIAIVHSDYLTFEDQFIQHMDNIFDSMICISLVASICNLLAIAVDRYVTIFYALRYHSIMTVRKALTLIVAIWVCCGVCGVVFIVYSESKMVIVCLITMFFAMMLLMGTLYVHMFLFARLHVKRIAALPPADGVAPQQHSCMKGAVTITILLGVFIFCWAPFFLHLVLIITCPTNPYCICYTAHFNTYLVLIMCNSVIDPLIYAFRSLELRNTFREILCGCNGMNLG", "assay": "Radioligand binding, human melanocortin MC3 membranes, FlashPlate, [125I]-NDP-αMSH", "details": "compound at 10 μM, [125I]-NDP-αMSH", "in_short": "as §1"}, "Human Melanocortin (MC4)": {"target": "T4, Human Melanocortin (MC4) (Homo sapiens, UniProt P32245)", "T4 construct": "purchased Perkin Elmer Biosignal", "T4 sequence (P32245 whole entry)": "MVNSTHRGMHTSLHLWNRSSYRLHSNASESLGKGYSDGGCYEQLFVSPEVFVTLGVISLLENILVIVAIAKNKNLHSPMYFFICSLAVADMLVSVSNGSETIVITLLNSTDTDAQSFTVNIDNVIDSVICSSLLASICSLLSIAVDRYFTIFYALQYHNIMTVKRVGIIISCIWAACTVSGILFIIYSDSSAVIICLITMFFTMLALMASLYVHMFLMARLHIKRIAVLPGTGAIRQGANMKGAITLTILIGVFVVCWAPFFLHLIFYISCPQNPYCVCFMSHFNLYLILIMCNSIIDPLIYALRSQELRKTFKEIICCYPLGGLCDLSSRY", "assay": "Radioligand binding, human melanocortin MC4 membranes, FlashPlate, [125I]-NDP-αMSH", "details": "compound at 10 μM, [125I]-NDP-αMSH", "in_short": "as §1"}, "Human melanocortin (MC5)": {"target": "T5, Human melanocortin (MC5) (Homo sapiens, UniProt P33032)", "T5 construct": "purchased Perkin Elmer Biosignal", "T5 sequence (P33032 whole entry)": "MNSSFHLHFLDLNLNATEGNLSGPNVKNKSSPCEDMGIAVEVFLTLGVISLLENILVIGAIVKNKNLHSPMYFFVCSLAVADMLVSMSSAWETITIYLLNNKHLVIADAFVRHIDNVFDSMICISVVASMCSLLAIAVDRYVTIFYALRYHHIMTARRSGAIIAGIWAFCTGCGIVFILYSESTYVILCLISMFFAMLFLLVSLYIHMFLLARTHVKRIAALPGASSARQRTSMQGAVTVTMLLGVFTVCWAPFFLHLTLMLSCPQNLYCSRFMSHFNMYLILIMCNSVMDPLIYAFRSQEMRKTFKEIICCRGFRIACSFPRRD", "assay": "Radioligand binding, human melanocortin MC5 membranes, FlashPlate, [125I]-NDP-αMSH", "details": "compound at 10 μM, [125I]-NDP-αMSH", "in_short": "as §1"}, "[1]": {"target": "T6, Human melanin-concentrating hormone (MCH1) (Homo sapiens, UniProt Q99705)", "T6 construct": "purchased Perkin Elmer Biosignal", "T6 sequence (Q99705 whole entry)": "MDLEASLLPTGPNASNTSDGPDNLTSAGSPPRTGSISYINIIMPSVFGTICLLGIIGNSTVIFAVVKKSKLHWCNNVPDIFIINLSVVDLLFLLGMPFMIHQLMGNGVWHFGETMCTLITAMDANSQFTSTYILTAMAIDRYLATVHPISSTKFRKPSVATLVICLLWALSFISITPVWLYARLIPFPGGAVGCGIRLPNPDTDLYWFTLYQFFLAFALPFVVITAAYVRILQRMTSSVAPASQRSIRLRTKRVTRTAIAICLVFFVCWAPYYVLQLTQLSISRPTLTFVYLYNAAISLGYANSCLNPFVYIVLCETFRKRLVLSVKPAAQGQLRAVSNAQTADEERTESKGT", "assay": "Radioligand binding, human melanin-concentrating hormone MCH1 membranes, FlashPlate, [125I]-S36057", "details": "compound at 10 μM", "in_short": "as §1"}, "Human μ-opioid (MOP)": {"target": "T7, Human μ-opioid (MOP) (Homo sapiens, UniProt P35372)", "T7 construct": "purchased Perkin Elmer Biosignal", "T7 sequence (P35372 whole entry)": "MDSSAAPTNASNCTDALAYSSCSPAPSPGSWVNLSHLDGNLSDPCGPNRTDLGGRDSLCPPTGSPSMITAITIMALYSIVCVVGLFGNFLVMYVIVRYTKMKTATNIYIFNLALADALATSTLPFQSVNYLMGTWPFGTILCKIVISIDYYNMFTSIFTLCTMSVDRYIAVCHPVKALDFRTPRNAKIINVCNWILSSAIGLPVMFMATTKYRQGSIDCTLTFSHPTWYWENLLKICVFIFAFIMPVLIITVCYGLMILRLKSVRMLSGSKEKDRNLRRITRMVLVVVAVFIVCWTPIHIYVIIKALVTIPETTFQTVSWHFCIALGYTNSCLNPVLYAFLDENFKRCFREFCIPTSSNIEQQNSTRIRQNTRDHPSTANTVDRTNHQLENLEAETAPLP", "assay": "Radioligand binding, human μ-opioid (MOP) membranes, FlashPlate, [3H]-Naloxone", "details": "compound at 10 μM, [3H]-Naloxone", "in_short": "as §1"}, "Human neurokinin (NK1)": {"target": "T8, Human neurokinin (NK1) (Homo sapiens, UniProt P25103)", "T8 construct": "purchased Perkin Elmer Biosignal", "T8 sequence (P25103 whole entry)": "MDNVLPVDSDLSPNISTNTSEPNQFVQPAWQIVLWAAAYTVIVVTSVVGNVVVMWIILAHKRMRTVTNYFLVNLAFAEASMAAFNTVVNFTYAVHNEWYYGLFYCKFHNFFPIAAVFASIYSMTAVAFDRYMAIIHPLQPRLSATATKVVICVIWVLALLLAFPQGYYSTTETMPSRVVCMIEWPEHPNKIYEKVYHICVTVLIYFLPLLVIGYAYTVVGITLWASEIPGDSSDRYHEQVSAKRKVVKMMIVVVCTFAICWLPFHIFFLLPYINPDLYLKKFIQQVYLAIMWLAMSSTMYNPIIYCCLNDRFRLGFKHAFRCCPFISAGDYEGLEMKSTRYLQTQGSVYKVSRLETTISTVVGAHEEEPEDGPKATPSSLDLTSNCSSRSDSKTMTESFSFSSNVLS", "assay": "Radioligand binding, human neurokinin NK1 membranes, filtration, [125I]-Substance P", "details": "compound at 10 μM, [125I]-Substance P", "in_short": "as §2"}, "[2]": {"target": "T9, Human neuropeptide Y (NPY-Y1) (Homo sapiens, UniProt P25929)", "T9 construct": "purchased Perkin Elmer Biosignal", "T9 sequence (P25929 1-384)": "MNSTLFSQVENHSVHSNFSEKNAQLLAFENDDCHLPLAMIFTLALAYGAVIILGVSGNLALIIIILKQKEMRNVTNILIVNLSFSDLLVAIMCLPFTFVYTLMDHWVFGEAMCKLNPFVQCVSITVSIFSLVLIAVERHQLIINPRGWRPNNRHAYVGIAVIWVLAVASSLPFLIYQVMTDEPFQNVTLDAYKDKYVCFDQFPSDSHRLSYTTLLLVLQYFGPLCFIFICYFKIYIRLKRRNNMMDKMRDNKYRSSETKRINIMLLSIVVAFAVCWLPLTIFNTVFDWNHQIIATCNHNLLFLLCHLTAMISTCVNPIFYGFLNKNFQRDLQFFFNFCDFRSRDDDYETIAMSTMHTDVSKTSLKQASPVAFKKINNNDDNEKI", "assay": "Radioligand binding, human neuropeptide Y NPY-Y1 membranes, FlashPlate, [125I]-PYY", "details": "compound at 10 μM, [125I]-PYY", "in_short": "as §1"}, "Human opioid (ORL1)": {"target": "T10, Human opioid (ORL1) (Homo sapiens, UniProt P41146)", "T10 construct": "purchased Perkin Elmer Biosignal", "T10 sequence (P41146 whole entry)": "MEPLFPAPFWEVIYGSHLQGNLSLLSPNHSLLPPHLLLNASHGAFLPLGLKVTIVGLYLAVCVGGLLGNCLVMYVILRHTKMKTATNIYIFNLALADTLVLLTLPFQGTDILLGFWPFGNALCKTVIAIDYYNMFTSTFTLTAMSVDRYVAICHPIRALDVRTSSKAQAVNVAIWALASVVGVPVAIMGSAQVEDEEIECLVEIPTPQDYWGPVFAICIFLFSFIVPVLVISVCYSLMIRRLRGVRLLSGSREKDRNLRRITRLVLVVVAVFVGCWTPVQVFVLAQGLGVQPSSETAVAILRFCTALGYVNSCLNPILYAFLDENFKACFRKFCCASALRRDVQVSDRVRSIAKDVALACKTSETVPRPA", "assay": "Radioligand binding, human opioid ORL1 membranes, FlashPlate, [125I]-Nociceptin", "details": "compound at 10 μM, [125I]-Nociceptin", "in_short": "as §1"}, "Mouse urotensin (mUR2)": {"target": "T11, Mouse urotensin (mUR2) (Mus musculus, UniProt Q8VIH9)", "T11 construct": "purchased Perkin Elmer Biosignal", "T11 sequence (Q8VIH9 1-385)": "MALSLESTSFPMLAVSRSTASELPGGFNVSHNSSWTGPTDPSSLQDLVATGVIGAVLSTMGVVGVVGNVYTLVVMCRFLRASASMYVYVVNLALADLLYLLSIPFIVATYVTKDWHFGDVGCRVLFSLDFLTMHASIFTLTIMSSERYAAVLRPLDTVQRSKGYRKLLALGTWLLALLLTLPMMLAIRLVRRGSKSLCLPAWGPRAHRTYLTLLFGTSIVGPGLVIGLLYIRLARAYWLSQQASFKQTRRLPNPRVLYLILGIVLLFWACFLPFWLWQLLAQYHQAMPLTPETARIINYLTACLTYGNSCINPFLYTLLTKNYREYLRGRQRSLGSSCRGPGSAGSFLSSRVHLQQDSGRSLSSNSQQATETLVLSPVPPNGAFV", "assay": "Radioligand binding, mouse urotensin mUR2 membranes, FlashPlate, [125I]-Urotensin II", "details": "compound at 10 μM, [125I]-Urotensin II", "in_short": "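Cloned mouse urotensin (mUR2) receptor membranes from Perkin Elmer Biosignal were immobilized in FlashPlate microplates using a proprietary coating. Each well got 19.5 μl buffer, then 0.5 μl of DMSO, reference ligand, or compound. Adding 5 μl of [125I]-Urotensin II, diluted to 5× final concentration in binding buffer, started binding. Plates were sealed with TopSeal-A and incubated 1 hour at room temperature in the dark. Wells were counted for 30 seconds each on a TopCount after a 60-second delay, and percentage inhibition was calculated.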"}}, "data": [{"molecule": "COCC1OC(OCc2ccc3ccccc3c2)C(NC(=O)CCNC(=N)N)C(OCc2ccc(Cl)cc2)C1O", "note": "(stereo not drawn) [compound 238]", "values": [{"measurement": "A1: inhibition of radioligand binding", "setting": "Human δ-opioid (DOP); FlashPlate", "result": "+ (“+” indicates greater than 50% inhibition at 10 μM)"}, {"measurement": "A2: inhibition of radioligand binding", "setting": "Human κ-Opioid (KOP); filtration", "result": "− (“−” indicates less than 50% inhibition at 10 μM)"}, {"measurement": "A3: inhibition of radioligand binding", "setting": "Human Melanocortin (MC3); FlashPlate", "result": "+ (“+” indicates greater than 50% inhibition at 10 μM)"}, {"measurement": "A4: inhibition of radioligand binding", "setting": "Human Melanocortin (MC4); FlashPlate", "result": "+ (“+” indicates greater than 50% inhibition at 10 μM)"}, {"measurement": "A5: inhibition of radioligand binding", "setting": "Human melanocortin (MC5); FlashPlate", "result": "+ (“+” indicates greater than 50% inhibition at 10 μM)"}, {"measurement": "A6: inhibition of radioligand binding", "setting": "[1]; [125I]-S36057, FlashPlate", "result": "+ (“+” indicates greater than 50% inhibition at 10 μM)"}, {"measurement": "A7: inhibition of radioligand binding", "setting": "Human μ-opioid (MOP); FlashPlate", "result": "− (“−” indicates less than 50% inhibition at 10 μM)"}, {"measurement": "A8: inhibition of radioligand binding", "setting": "Human neurokinin (NK1); filtration", "result": "+ (“+” indicates greater than 50% inhibition at 10 μM)"}, {"measurement": "A9: inhibition of radioligand binding", "setting": "[2]; FlashPlate", "result": "− (“−” indicates less than 50% inhibition at 10 μM)"}, {"measurement": "A10: inhibition of radioligand binding", "setting": "Human opioid (ORL1); FlashPlate", "result": "+ (“+” indicates greater than 50% inhibition at 10 μM)"}, {"measurement": "A11: inhibition of radioligand binding", "setting": "Mouse urotensin (mUR2); FlashPlate", "result": "− (“−” indicates less than 50% inhibition at 10 μM)"}]}, {"molecule": "COC[C@H]1OC(OCc2ccc3ccccc3c2)[C@H](NC(=O)CCCN)[C@@H](OCc2cccc(O)c2)[C@@H]1O", "note": "(stereo partly drawn) [compound 134]", "values": [{"measurement": "A1 radioligand binding, percentage inhibition", "setting": "Human δ-opioid (DOP)", "result": "− (“−” indicates less than 50% inhibition at 10 μM)"}, {"measurement": "A2 radioligand binding, percentage inhibition", "setting": "Human κ-Opioid (KOP)", "result": "− (“−” indicates less than 50% inhibition at 10 μM)"}, {"measurement": "A3 radioligand binding, percentage inhibition", "setting": "Human Melanocortin (MC3)", "result": "− (“−” indicates less than 50% inhibition at 10 μM)"}, {"measurement": "A4 radioligand binding, percentage inhibition", "setting": "Human Melanocortin (MC4)", "result": "− (“−” indicates less than 50% inhibition at 10 μM)"}, {"measurement": "A5 radioligand binding, percentage inhibition", "setting": "Human melanocortin (MC5)", "result": "− (“−” indicates less than 50% inhibition at 10 μM)"}, {"measurement": "A6 radioligand binding, percentage inhibition", "setting": "[1]; [125I]-S36057", "result": "− (“−” indicates less than 50% inhibition at 10 μM)"}, {"measurement": "A7 radioligand binding, percentage inhibition", "setting": "Human μ-opioid (MOP)", "result": "+ (“+” indicates greater than 50% inhibition at 10 μM)"}, {"measurement": "A8 radioligand binding, percentage inhibition", "setting": "Human neurokinin (NK1)", "result": "− (“−” indicates less than 50% inhibition at 10 μM)"}, {"measurement": "A9 radioligand binding, percentage inhibition", "setting": "[2]", "result": "− (“−” indicates less than 50% inhibition at 10 μM)"}, {"measurement": "A10 radioligand binding, percentage inhibition", "setting": "Human opioid (ORL1)", "result": "− (“−” indicates less than 50% inhibition at 10 μM)"}, {"measurement": "A11 radioligand binding, percentage inhibition", "setting": "Mouse urotensin (mUR2)", "result": "− (“−” indicates less than 50% inhibition at 10 μM)"}]}, {"molecule": "CSC1OC(COCc2ccccc2)C(O)C(OCc2ccc3ccccc3c2)C1NC(=O)CNC(=N)N", "note": "(stereo not drawn) [compound 302]", "values": [{"measurement": "A1: inhibition of radioligand binding, human δ-opioid (DOP)", "setting": "Human δ-opioid (DOP)", "result": "− (“−” indicates less than 50% inhibition at 10 μM)"}, {"measurement": "A2: inhibition of radioligand binding, human κ-opioid (KOP)", "setting": "Human κ-Opioid (KOP)", "result": "− (“−” indicates less than 50% inhibition at 10 μM)"}, {"measurement": "A3: inhibition of radioligand binding, human melanocortin (MC3)", "setting": "Human Melanocortin (MC3)", "result": "− (“−” indicates less than 50% inhibition at 10 μM)"}, {"measurement": "A4: inhibition of radioligand binding, human melanocortin (MC4)", "setting": "Human Melanocortin (MC4)", "result": "+ (“+” indicates greater than 50% inhibition at 10 μM)"}, {"measurement": "A5: inhibition of radioligand binding, human melanocortin (MC5)", "setting": "Human melanocortin (MC5)", "result": "+ (“+” indicates greater than 50% inhibition at 10 μM)"}, {"measurement": "A6: inhibition of radioligand binding, human melanin-concentrating hormone (MCH1)", "setting": "[1]; [125I]-S36057", "result": "− (“−” indicates less than 50% inhibition at 10 μM)"}, {"measurement": "A7: inhibition of radioligand binding, human μ-opioid (MOP)", "setting": "Human μ-opioid (MOP)", "result": "− (“−” indicates less than 50% inhibition at 10 μM)"}, {"measurement": "A8: inhibition of radioligand binding, human neurokinin (NK1)", "setting": "Human neurokinin (NK1)", "result": "+ (“+” indicates greater than 50% inhibition at 10 μM)"}, {"measurement": "A9: inhibition of radioligand binding, human neuropeptide Y (NPY-Y1)", "setting": "[2]", "result": "− (“−” indicates less than 50% inhibition at 10 μM)"}, {"measurement": "A10: inhibition of radioligand binding, human opioid (ORL1)", "setting": "Human opioid (ORL1)", "result": "− (“−” indicates less than 50% inhibition at 10 μM)"}, {"measurement": "A11: inhibition of radioligand binding, mouse urotensin (mUR2)", "setting": "Mouse urotensin (mUR2)", "result": "− (“−” indicates less than 50% inhibition at 10 μM)"}]}]}
